Laboratory results taken from ChEMBL document CHEMBL1201862, “PubChem BioAssay data set” (2004).
Activity calls are given as the source filed them.

Tests used:
[1] = molecular target: T1, Replicative DNA helicase DnaB (Mycobacterium tuberculosis, UniProt P9WMR3); experiment: DnaB intein splicing inhibitors, dose response, biochemical, cell-free fluorescence (AID 449749); format: functional
T1 sequence (P9WMR3 whole entry): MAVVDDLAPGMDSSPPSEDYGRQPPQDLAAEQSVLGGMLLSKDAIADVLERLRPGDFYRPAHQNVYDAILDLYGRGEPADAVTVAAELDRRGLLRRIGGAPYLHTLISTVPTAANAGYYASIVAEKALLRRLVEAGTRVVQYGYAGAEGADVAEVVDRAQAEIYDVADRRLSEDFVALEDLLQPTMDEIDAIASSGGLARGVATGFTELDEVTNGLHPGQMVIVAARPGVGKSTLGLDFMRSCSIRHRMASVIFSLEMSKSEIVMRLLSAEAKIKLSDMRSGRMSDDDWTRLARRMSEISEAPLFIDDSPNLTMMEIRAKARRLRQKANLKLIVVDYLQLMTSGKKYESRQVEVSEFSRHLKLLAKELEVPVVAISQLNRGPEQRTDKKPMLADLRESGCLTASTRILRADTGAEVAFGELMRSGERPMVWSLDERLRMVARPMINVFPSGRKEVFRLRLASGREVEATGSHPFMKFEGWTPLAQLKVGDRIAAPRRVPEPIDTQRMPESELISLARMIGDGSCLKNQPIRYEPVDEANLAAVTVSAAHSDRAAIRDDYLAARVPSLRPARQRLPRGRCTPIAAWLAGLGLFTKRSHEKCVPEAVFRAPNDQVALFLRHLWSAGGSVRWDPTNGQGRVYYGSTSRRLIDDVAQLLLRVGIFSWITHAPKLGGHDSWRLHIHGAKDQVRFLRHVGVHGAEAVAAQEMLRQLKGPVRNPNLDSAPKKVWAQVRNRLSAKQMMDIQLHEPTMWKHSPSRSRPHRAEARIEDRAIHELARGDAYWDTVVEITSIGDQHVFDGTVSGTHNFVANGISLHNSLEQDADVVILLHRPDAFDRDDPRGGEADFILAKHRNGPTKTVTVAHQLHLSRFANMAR

Protein RecA = molecular target: T2, Protein RecA (Mycobacterium tuberculosis, UniProt P9WHJ3); experiment: Fluorescence Cell-Free Homogeneous Dose Retest to Identify Inhibitors of RecA-Intein Splicing Activity. [Related pubchem assays (depositor defined):AID2097, AID2223, AID489010, AID492950]; format: functional
T2 sequence (P9WHJ3 whole entry): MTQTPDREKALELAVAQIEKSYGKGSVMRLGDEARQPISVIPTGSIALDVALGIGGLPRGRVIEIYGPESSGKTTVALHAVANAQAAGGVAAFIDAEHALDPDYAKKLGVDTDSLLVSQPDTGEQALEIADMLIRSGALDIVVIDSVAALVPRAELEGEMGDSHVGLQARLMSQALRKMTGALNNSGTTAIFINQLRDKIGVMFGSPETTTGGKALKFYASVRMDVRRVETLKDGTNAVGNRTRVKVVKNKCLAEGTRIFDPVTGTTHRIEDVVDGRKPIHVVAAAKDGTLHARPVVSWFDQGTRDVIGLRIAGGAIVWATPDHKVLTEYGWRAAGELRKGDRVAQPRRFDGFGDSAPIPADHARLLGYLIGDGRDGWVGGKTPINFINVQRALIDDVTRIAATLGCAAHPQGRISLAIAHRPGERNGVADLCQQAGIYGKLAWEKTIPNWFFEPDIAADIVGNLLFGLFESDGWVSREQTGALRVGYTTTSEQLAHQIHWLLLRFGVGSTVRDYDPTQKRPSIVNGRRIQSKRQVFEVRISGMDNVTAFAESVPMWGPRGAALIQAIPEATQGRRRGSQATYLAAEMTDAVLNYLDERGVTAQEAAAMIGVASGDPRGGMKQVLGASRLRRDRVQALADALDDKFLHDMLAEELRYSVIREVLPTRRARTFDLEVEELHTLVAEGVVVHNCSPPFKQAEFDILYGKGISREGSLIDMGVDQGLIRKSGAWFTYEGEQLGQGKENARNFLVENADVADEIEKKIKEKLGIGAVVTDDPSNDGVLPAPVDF

[2] = viability of HCT116 lacking mutant beta-catenin – cell-based, human colon tumor, dose response (AID 1045); format: functional;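 note: HCT116 colon tumor cells with beta catenin knocked out; cells exposed to compound for 60 hours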
[3] = fluconazole-exposed Candida albicans growth modulators – fluorescence, retest, confirmation (AID 2467); format: functional, cell-based
[4] = Trypanosoma cruzi growth suppression in host cells – NIH3T3 host cells, beta-gal luminescence, confirmation (AID 2044); format: functional, cell-based;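 note: intracellular parasites grown in NIH/3T3 mouse fibroblasts as host cells; luminescent beta-galactosidase reporter signal from transgenic T. cruzi replicating inside host cells; inhibitors lower the luminescence signal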
[5] = NIH-3T3 fibroblast cytotoxicity, dose response, cytotoxicity control, cell-based, fluorescence, Alamar Blue, secondary assay (AID 2327); format: functional;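 note: NIH-3T3 mouse fibroblasts cultured with fluconazole at 8 µg/mL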
[6] = viability of PTEN-deleted HCT116 cells – cell-based, HCT116 PTEN knockout, dose response (AID 1047); format: functional;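 note: HCT116 colon tumor cells with PTEN knocked out; cells exposed to compound for 60 hours before readout; potency for loss of cell viability measured by luminescence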
[7] = NIH3T3 cell viability loss – ATP luminescence, mouse fibroblasts, counter-screen, dose response (AID 2010); format: functional, cell-based;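 note: cells exposed to compound for about 90 hours before reading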
[8] = microbe, parasite or virus in culture; format: functional; conditions: Mycobacterium tuberculosis
Protein skinhead-1 = molecular target: T3, Protein skinhead-1 (Caenorhabditis elegans, UniProt P34707); format: functional
T3 sequence (P34707 whole entry): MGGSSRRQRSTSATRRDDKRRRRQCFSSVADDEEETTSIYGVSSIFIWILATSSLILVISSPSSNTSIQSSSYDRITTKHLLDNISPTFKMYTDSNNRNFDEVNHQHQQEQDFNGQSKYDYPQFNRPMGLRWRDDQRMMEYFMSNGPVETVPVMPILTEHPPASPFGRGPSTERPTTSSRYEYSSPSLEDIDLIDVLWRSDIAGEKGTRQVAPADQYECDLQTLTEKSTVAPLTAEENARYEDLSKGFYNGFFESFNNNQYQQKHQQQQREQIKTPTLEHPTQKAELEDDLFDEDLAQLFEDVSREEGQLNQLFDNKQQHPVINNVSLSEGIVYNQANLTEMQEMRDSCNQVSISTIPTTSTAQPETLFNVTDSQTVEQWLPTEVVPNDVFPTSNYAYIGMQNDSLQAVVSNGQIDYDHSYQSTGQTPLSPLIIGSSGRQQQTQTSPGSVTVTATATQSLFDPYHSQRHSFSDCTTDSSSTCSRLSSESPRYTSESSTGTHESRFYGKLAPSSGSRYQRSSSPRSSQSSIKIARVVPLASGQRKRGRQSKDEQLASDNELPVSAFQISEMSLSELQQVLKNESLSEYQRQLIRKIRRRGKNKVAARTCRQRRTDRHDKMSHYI

[9] = molecular target: T4, Heat shock factor protein 1 (Mus musculus, UniProt P38532); experiment: enhancement of HSF1-driven luciferase signal – cell-based, NIH3T3, luminescence, dose retest, confirmation (AID 435004); format: functional;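 note: stress induced by proteasome inhibitor MG132 added 30 min after compound; luciferase reporter driven by HSF1 response element in NIH3T3 cells; actives raise luminescence as potentiators of the MG132 stress response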
T4 sequence (P38532 whole entry): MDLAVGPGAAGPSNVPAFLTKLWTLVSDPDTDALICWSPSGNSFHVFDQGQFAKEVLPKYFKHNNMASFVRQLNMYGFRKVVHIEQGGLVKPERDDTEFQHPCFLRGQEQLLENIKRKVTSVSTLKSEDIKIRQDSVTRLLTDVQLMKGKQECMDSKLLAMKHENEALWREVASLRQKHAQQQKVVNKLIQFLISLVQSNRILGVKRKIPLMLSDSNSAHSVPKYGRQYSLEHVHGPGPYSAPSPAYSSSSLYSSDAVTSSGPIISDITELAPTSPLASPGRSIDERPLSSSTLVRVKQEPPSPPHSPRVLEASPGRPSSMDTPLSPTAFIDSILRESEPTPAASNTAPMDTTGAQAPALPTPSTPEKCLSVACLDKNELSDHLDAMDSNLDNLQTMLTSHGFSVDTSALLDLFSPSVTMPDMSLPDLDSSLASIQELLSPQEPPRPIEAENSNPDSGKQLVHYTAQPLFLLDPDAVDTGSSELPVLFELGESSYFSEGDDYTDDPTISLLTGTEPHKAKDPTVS

| SMILES | AC50 [1] | EC50 (Protein RecA) | IC50 (Protein skinhead-1) | other results |
| --- | --- | --- | --- | --- |
| COc1ccc(S(=O)(=O)c2cnc3ccccc3n2)cc1 | 54.1 µM (active) | 16.4 µM (active) |  |  |
| CCn1c(COc2cccc3ccccc23)nnc1SCC(N)=O | 273 µM (active) | > 380 µM (inactive) |  |  |
| O=c1cc(-c2c(F)c(F)c(F)c(F)c2F)oc2c(F)c(F)c(F)c(F)c12 | 7.17 µM (active) | 2.92 µM (active) |  | EC50 [2]: 3.37 µM (active); EC50 [3]: 0.52 µM (active); EC50 [4]: 0.663 µM (active); EC50 [5]: 2.66 µM (inconclusive); EC50 [6]: 5.95 µM (active); EC50 [7]: 1.04 µM (active) |
| CCOC(=O)CN=C(S)n1cnc(N)n1 |  |  |  | CC50 [8]: > 40 µM (active) |
| CC(C(=O)NC(=O)NC1CCCCC1)N(C)CC(=O)Nc1ccc(F)c(F)c1F (centres undefined) |  |  |  | CC50 [8]: 25.8 µM (active) |
| O=c1c2cc3c(cc2[nH]c(=S)n1Cc1ccco1)OCO3 |  |  | > 100 µM (inactive) |  |
| Cc1nc(NC(=O)C2CC3CCCC(C2)C3=O)sc1C (centres undefined) |  |  | > 100 µM (inactive) |  |
| Cc1ccc(C(C(=O)NCC2CCCO2)N(Cc2ccccc2)C(=O)c2ccc(-c3ccccc3)[nH]2)o1 (centres undefined) |  |  |  | CC50 [8]: > 40 µM (active) |
| Cc1ccc2nc(-c3cccs3)oc(=O)c2c1 | 117 µM (active) | 60.5 µM (active) |  |  |
| CCOc1cc(/C=C2/C(=N)N3C(=NC2=O)SN=C3S(=O)(=O)C(C)C)ccc1OC(=O)c1ccco1 | > 380 µM (inactive) | 18.6 µM (active) |  |  |
| Cc1cc(NC(=O)c2cc(-c3ccncc3)nc3c(C)cccc23)no1 |  |  |  | CC50 [8]: 9.08 µM (active) |
| COC(=O)C(C)Sc1ncnc2c1nnn2-c1ccc(F)cc1 (centres undefined) | 5.57 µM (active) | 5.09 µM (active) |  | EC50 [9]: 11.6 µM (active) |
| O=C1/C(=C\c2ccc(C(F)(F)F)cc2)CSc2sccc21 |  |  | 69.4 µM (inactive) |  |
| Cc1c(NC(=O)CSc2ccc3c(c2)OCCO3)c(=O)n(-c2ccccc2)n1C |  |  | > 100 µM (inactive) |  |
| O=C(Nc1nc(-c2ccccc2)cs1)c1cccs1 |  |  | 59.9 µM (inactive) |  |
| NC(=O)CC[C@@H]1NC(=O)[C@H](CO)NC(=O)c2cc([N+](=O)[O-])cc(I)c2NCC[C@@H](C(N)=O)NC1=O | 47.5 µM (active) | 13.3 µM (active) |  |  |
| COc1ccc(CNC(C)C(=O)Nc2ccc3ccccc3c2)cc1OC (centres undefined) |  |  | > 100 µM (inactive) |  |
| O=C(c1cccc(-c2ccco2)c1)N1CCCC(N2CCN(c3ccc(F)cc3)CC2)C1 (centres undefined) |  |  |  | CC50 [8]: > 40 µM (active) |
| Fc1cccc(-c2csc(-c3ccno3)n2)c1 |  |  | > 100 µM (inactive) |  |
| Cc1nn(Cc2ccccc2)c2c1C(c1cccnc1)C(C#N)=C(N)O2 (centres undefined) | 8.8 µM (active) | 2.78 µM (active) |  |  |

| SMILES | AC50 [1] | EC50 (Protein RecA) | IC50 (Protein skinhead-1) | other results |
| --- | --- | --- | --- | --- |
| Clc1ccc(-c2cn3cccnc3n2)cc1Cl |  |  | > 100 µM (inactive) |  |
| CC(C)S(=O)(=O)C1=NSC2=NC(=O)/C(=C\c3ccc(OC(=O)c4ccco4)cc3)C(=N)N21 | 17 µM (active) | 10.9 µM (active) |  |  |
| Cc1cccc(-c2nc3c(c(SCC(=O)N4CCOCC4)n2)CCCC3)c1 |  |  | > 100 µM (inactive) |  |
| COc1ccc(-c2cc(C(=O)Nc3c(C)n(C)n(-c4ccccc4)c3=O)c3ccccc3n2)c(OC)c1 |  |  | > 100 µM (inactive) |  |
| CC1=NN(c2ccc(N)cc2)C(=O)C1 | 2.41 µM (active) | 1.78 µM (active) |  |  |
| O=C1NC(c2ccc(-c3ccccc3[N+](=O)[O-])o2)C(C(=O)c2ccc(F)cc2)C(O)(C(F)(F)F)N1 (centres undefined) | 13.3 µM (active) | > 380 µM (inconclusive) |  |  |
| Cc1nc2c(-c3ccc(F)cc3)c(C)nn2c(O)c1Cl | 31.1 µM (active) | 11 µM (active) |  |  |
| Cc1ccc(N(CCC#N)C(=O)CCl)cc1C | 167 µM (active) | 5.7 µM (active) |  | CC50 [8]: 1.84 µM (active); EC50 [4]: 3.59 µM (active); EC50 [7]: 4.81 µM (active) |
| CCCC(=O)N(CCN1CCOCC1)c1nc2c(OCC)cccc2s1 |  |  | > 100 µM (inactive) |  |
| O=C(NCc1ccncc1)c1ccc(-c2ccc(F)c(F)c2)c2ccoc12 |  |  | 20.2 µM (active) |  |
| Cc1ccc(NC(=O)COC(=O)C2(C)CC2(Cl)Cl)cc1S(=O)(=O)N1CCOCC1 (centres undefined) |  |  | > 100 µM (inactive) |  |
| CC/C(=C\c1ccc(Cl)cc1)c1ccncc1 |  |  | 13.5 µM (active) |  |
| c1ccc(-c2cnc(-c3ccccc3)nn2)cc1 |  |  | 78.4 µM (inactive) |  |
| CC1(Cc2ccc(OC(F)(F)F)cc2)C(=O)Nc2ccc(OC(F)(F)F)cc21 (centres undefined) |  |  | 34.3 µM (active) |  |
| Cc1cc(C(=O)N/N=C\C(Br)=C\c2ccccc2)c(C)o1 |  |  |  | CC50 [8]: > 40 µM (active) |
| C/C(CC(=O)Nc1ccc(Cl)cc1C(F)(F)F)=N\NC(N)=S |  |  |  | CC50 [8]: > 40 µM (active) |
| Cc1ccccc1-n1c(SCC(=O)N/N=C/c2c(C)nn(-c3ccccc3)c2C)nc2ccccc2c1=O |  |  |  | CC50 [8]: > 40 µM (active); EC50 [4]: 1.6 µM (active); EC50 [7]: > 60 µM (not active) |
| COc1ccc(C2C(C(=O)OC(C)C)=C(C)N=c3s/c(=C\c4cccs4)c(=O)n32)cc1 (centres undefined) |  |  | > 100 µM (inactive) |  |
| CCCCCCCCCCC[C@@H](C[C@@H]1OC(=O)[C@H]1CCCCCC)OC(=O)[C@H](CC(C)C)NC=O [ORLISTAT] |  |  |  | CC50 [8]: 37.9 µM (active) |
